Source: patent publication US20130269045A1, “HB-EGF DEFICIENT TRANSGENIC ANIMAL AND PRODUCTION METHOD THEREOF” (Nagasaki University, priority 2012, published 2013)

Columns and labels:
Assay type in all cases: in vivo
[1] = system: HB-EGF deficient type TG mouse; test: Marble-burying behavior test (obsessive-compulsive disorder related anxiety-like behavior); conditions: 1 mg/kg i.p. once a day for 7 days; for number of the marbles that were buried: 25 marbles, 30 minutes, saline group: large, FIG. 17
Procedure: The marble-burying behavior test was carried out in accordance with the following processes. First, in a cage in which bedding was carpeted in around 5 cm depth, 25 blue-colored marbles with 17 mm were equally arranged, and the marble-burying behavior of each mouse were measured for 30 minutes. After a lapse of 30 minutes, when observed from straight above, the marbles those were buried two-thirds or more thereof with bedding were counted. Further, the acting amount of burying marbles was determined by SCANET. In the marble-burying behavior test, the more the number of marbles that buried after the test, the more the anxiety-like behavior enhanced.
(§1) As the therapeutic agent, three drugs of atomoxetine (1 mg/kg), nefiracetam (1 mg/kg), and SA4503 (1 mg/kg) were used independently to administer into the abdominal cavity once a day for 7 days in a row. As a control of the therapeutic agent, saline was administered into the abdominal cavity once a day for 7 days in a row.

[2] = system: HB-EGF deficient type TG mouse; test: Nest-building test (social behavior, interest and consideration for the surrounding environment); conditions: 1 mg/kg i.p. once a day for 7 days; for state of the nest: collecting the cotton in one place and making the nest: FIG. 16(a); for amount of the cotton that was not used for the nest-building: Nestlet 2.5 g provided, FIG. 16(c); for rating on 5-point scale for the state of the nest: score criteria 1-5 (5 = almost perfect nest), FIG. 16(b)
Procedure: The nest-building test was carried out in accordance with the following processes. First, from one hour before the darkness period (19:00) of the light and darkness cycle (light period 8:00 to 20:00/darkness period 20:00 to 8:00), each mouse was reared alone in a new cage, and provided with Nestlet (2.5 g) that is a material for the nest-building. During the darkness period 20:00 to 8:00, each mouse acted freely, in the next morning the nest shape that was made by each mouse was scored on 5-point scale, and the unused Nestlet amount was measured. The score was determined by the following criteria.
1: 90% of the Nestlet was unused.
2: the Nestlet was slightly used, however, 50 to 90% of the Nestlet was left unused.
3: 50 to 90% of the Nestlet was torn off finely, and the shape was not maintained as the nest.
5: 90% or more of the Nestlet was torn off finely, and used as a material of the nest, the nest was dug into a crater-like shape, and the (almost) perfect nest that buries the whole body of the mouse when viewed from the side was confirmed.
as §1

[3] = system: HB-EGF deficient type TG mouse; test: Cylindrical platform test (impulsivity), ratio of mice remained on the platform; conditions: for impulsivity (conclusion in words): HB-EGF deficient type TG mouse, 1 mg/kg i.p. once a day for 7 days; for ratio of the mice that were remained on the platform: HB-EGF deficient type mouse, 1 mg/kg into the abdominal cavity once a day for 7 days, column height 20 cm, diameter 10 cm, untreated TG only 20%, non-deficient 80% or more
Procedure: Further, the behavior of each mouse of the descending from the top of the platform to the floor was observed by classifying into the positive performing (=jumped down from the head) and the negative performing (=fall off from the tail).
as §1
In the mouse in which HB-EGF is not deficient, 80% or more of the mice were remained on the platform. On the other hand, in the HB-EGF deficient type mouse, only 20% of the mice were remained on the platform. However, in the case of administering atomoxetine to the HB-EGF deficient type mouse, 50% or more of the mice were remained on the platform. Further, in the case of administering nefiracetam to the HB-EGF deficient type mouse, 70% or more of the mice were remained on the platform.

| Compound | number of the marbles that were buried [1] | social behavior, interest and consideration for the surrounding environment (conclusion in words) [2] | state of the nest: collecting the cotton in one place and making the nest [2] | amount of the cotton that was not used for the nest-building [2] | rating on 5-point scale for the state of the nest [2] | anxiety-like behavior related to obsessive-compulsive disorder (conclusion in words) [1] | impulsivity (conclusion in words) [3] | ratio of the mice that were remained on the platform [3] [%] |
| --- | --- | --- | --- | --- | --- | --- | --- | --- |
| COc1ccc(CCN2CCN(CCCc3ccccc3)CC2)cc1OC [SA4503] | the same level as that of the HB-EGF deficient type TG mouse into which saline had been administered | improved the social behavior, and the interest and consideration for the surrounding environment | could collect the cotton in one place and could make the nest | around 0.1 g | 5 | – | – | – |
| Cc1cccc(C)c1NC(=O)CN1CCCC1=O [nefiracetam] | small | improved the social behavior, and the interest and consideration for the surrounding environment | could collect the cotton in one place and could make the nest | around 0.1 g | 5 | the anxiety-like behavior related to obsessive-compulsive disorder was decreased | the impulsivity was suppressed | ≥ 70 |
| CNCC[C@@H](Oc1ccccc1C)c1ccccc1 [atomoxetine] | the same level as that of the HB-EGF deficient type TG mouse into which saline had been administered | – | could not collect the cotton in one place and could not make the nest | – | ≤ 3 | – | the impulsivity was suppressed | ≥ 50 |
